Counter-ions that a name gives are not always drawn. Like-named read-outs stand apart in the source and are kept apart here. Each block holds one compound with its values, some of them ahead of it.
What was measured:
Format in all cases: cell-based
DU145 = assay: Tumor cell growth inhibition, Trypan blue exclusion, DU145; settings: Homo sapiens, cell viability after 96 hours vs vehicle (DMSO)
Protocol: (§1) The effect of Compounds of Formula I on tumor cells of prostate, colon, lung, pancreatic, brain, renal, gastrointestinal, epidermal, lymphocytic, ovary and breast origin was examined by utilizing a variety of cancer cell lines (listed in Table 6). Cells were plated at density levels of 1.0×10^5 cells per well in six-well plates. Cell cultures were maintained at 37° C. in a humidified atmosphere of 5% CO2.
(§2) In addition, DU-145 cells were treated with three additional compounds of the invention: (E)-4-(3-(5-((2,4,6-trimethoxystyrylsulfonyl)methyl)-2-methoxyphenoxy)propyl)morpholine; (E)-5-((2,4,6-trimethoxystyrylsulfonyl)methyl)-2-methoxyphenyl 2-(dimethylamino)acetate; and (E)-5-((2,4,6-trimethoxystyrylsulfonyl)methyl)-2-methoxyphenyl 4-methylbenzenesulfonate, the structures of which are shown in Table 7.
(§3) Values are reported as the GI50, i.e., the concentration (μM) required for 50% growth inhibition as compared to vehicle (DMSO) treated cells. The notations “ER+” and “ER−” designate breast cancer lines that are responsive and non-responsive to estrogen, respectively. The notations “AR+” and “AR−” designate prostate cancer lines that are responsive and non-responsive to androgens, respectively. […] For cell lines designated by “*”, the dose response curve for the compound (E)-5-((2,4,6-trimethoxystyrylsulfonyl)methyl)-2-methoxyphenol (Example 1) is set forth in FIG. 1.

BT20 = assay: Tumor cell growth inhibition, Trypan blue exclusion, BT20; settings: Homo sapiens, BT-20; BT20, Breast (Er−); cell viability after 96 hours vs vehicle (DMSO)
Protocol: as §1, §2, §3

T47D = assay: Tumor cell growth inhibition, Trypan blue exclusion, T47D; settings: Homo sapiens, Breast (Er+), cell viability after 96 hours vs vehicle (DMSO)
Protocol: as §1
(§4) Cells of 36 different cell lines were treated with (E)-5-((2,4,6-trimethoxystyrylsulfonyl)methyl)-2-methoxyphenol (Example 1) or (E)-5-((2,4,6-trimethoxystyrylsulfonyl)methyl)-2-methoxy-phenyl dihydrogen phosphate disodium salt (Example 5) at doses ranging from 2 nM to 10 nM concentration, and cell viability was determined after 96 hours by the Trypan blue exclusion method. In addition, DU-145 cells were treated with three additional compounds of the invention: (E)-4-(3-(5-((2,4,6-trimethoxystyrylsulfonyl)methyl)-2-methoxyphenoxy)propyl)morpholine; (E)-5-((2,4,6-trimethoxystyrylsulfonyl)methyl)-2-methoxyphenyl 2-(dimethylamino)acetate; and (E)-5-((2,4,6-trimethoxystyrylsulfonyl)methyl)-2-methoxyphenyl 4-methylbenzenesulfonate, the structures of which are shown in Table 7.
(§5) Values are reported as the GI50, i.e., the concentration (μM) required for 50% growth inhibition as compared to vehicle (DMSO) treated cells. […]

MCF-7 = assay: Tumor cell growth inhibition, Trypan blue exclusion, MCF-7; settings: Homo sapiens, MCF7; MCF-7, Breast (Er+); cell viability after 96 hours vs vehicle (DMSO)
Protocol: as §1, §4, §5

LNCAP = assay: Tumor cell growth inhibition, Trypan blue exclusion, LNCAP; settings: Homo sapiens, Prostate (Ar+), cell viability after 96 hours vs vehicle (DMSO)
Protocol: as §1, §4, §5

PC-3 = assay: Tumor cell growth inhibition, Trypan blue exclusion, PC-3; settings: Homo sapiens; PC-3, Prostate; cell viability after 96 hours vs vehicle (DMSO)
Protocol: as §1, §4, §5

OV-CAR-3 = assay: Tumor cell growth inhibition, Trypan blue exclusion, OV-CAR-3; settings: Homo sapiens, OVCAR-3; OV-CAR-3, Ovarian; cell viability after 96 hours vs vehicle (DMSO)
Protocol: as §1, §4, §5

Sk-OV-3 = assay: Tumor cell growth inhibition, Trypan blue exclusion, Sk-OV-3; settings: Homo sapiens; Sk-OV-3, Ovarian; cell viability after 96 hours vs vehicle (DMSO)
Protocol: as §1, §4, §5

MIA-PACA2 = assay: Tumor cell growth inhibition, Trypan blue exclusion, MIA-PACA2; settings: Homo sapiens, MIA PaCa-2; MIA-PACA2, Pancreatic; cell viability after 96 hours vs vehicle (DMSO)
Protocol: as §1, §4, §5

U87 = assay: Tumor cell growth inhibition, Trypan blue exclusion, U87; settings: Homo sapiens, U-87 MG; U87, Glioblastoma; cell viability after 96 hours vs vehicle (DMSO)
Protocol: as §1, §4, §5

H157 = assay: Tumor cell growth inhibition, Trypan blue exclusion, H157; settings: Homo sapiens, NCI-H157; H157, Nsclc; cell viability after 96 hours vs vehicle (DMSO)
Protocol: as §1, §4, §5

A549 = assay: Tumor cell growth inhibition, Trypan blue exclusion, A549; settings: Homo sapiens; A549, Nsclc; cell viability after 96 hours vs vehicle (DMSO)
Protocol: as §1, §4, §5

H187 = assay: Tumor cell growth inhibition, Trypan blue exclusion, H187; settings: Homo sapiens, NCI-H187; H187, Sclc; cell viability after 96 hours vs vehicle (DMSO)
Protocol: as §1, §4, §5

N417 = assay: Tumor cell growth inhibition, Trypan blue exclusion, N417; settings: N417, Sclc; cell viability after 96 hours vs vehicle (DMSO)
Protocol: as §1, §4, §5

AGS = assay: Tumor cell growth inhibition, Trypan blue exclusion, AGS; settings: Homo sapiens, Gastric, cell viability after 96 hours vs vehicle (DMSO)
Protocol: as §1, §4, §5

RF1 = assay: Tumor cell growth inhibition, Trypan blue exclusion, RF1; settings: RF1, Gastric; cell viability after 96 hours vs vehicle (DMSO)
Protocol: as §1, §4, §5

RF48 = assay: Tumor cell growth inhibition, Trypan blue exclusion, RF48; settings: RF48, Gastric; cell viability after 96 hours vs vehicle (DMSO)
Protocol: as §1, §4, §5

CAKI-2 = assay: Tumor cell growth inhibition, Trypan blue exclusion, CAKI-2; settings: Homo sapiens; CAKI-2, Renal; cell viability after 96 hours vs vehicle (DMSO)
Protocol: as §1, §4, §5

COLO-320 = assay: Tumor cell growth inhibition, Trypan blue exclusion, COLO-320; settings: Homo sapiens; COLO-320, Colo-Rectal; cell viability after 96 hours vs vehicle (DMSO)
Protocol: as §1, §4, §5

DLD-1 = assay: Tumor cell growth inhibition, Trypan blue exclusion, DLD-1; settings: Homo sapiens; DLD-1, Colo-Rectal; cell viability after 96 hours vs vehicle (DMSO)
Protocol: as §1, §4, §5

HCT-116 = assay: Tumor cell growth inhibition, Trypan blue exclusion, HCT-116; settings: Homo sapiens; HCT-116, Colo-Rectal; cell viability after 96 hours vs vehicle (DMSO)
Protocol: as §1, §4, §5

HCT-15 = assay: Tumor cell growth inhibition, Trypan blue exclusion, HCT-15; settings: Homo sapiens; HCT-15, Colo-Rectal; cell viability after 96 hours vs vehicle (DMSO)
Protocol: as §1, §4, §5

SW480 = assay: Tumor cell growth inhibition, Trypan blue exclusion, SW480; settings: Homo sapiens; SW480, Colo-Rectal; cell viability after 96 hours vs vehicle (DMSO)
Protocol: as §1, §4, §5

SK-MEL-28 = assay: Tumor cell growth inhibition, Trypan blue exclusion, SK-MEL-28; settings: Homo sapiens; SK-MEL-28, Melanoma; cell viability after 96 hours vs vehicle (DMSO)
Protocol: as §1, §4, §5

CEM [1] = assay: Tumor cell growth inhibition, Trypan blue exclusion, CEM; settings: Homo sapiens, CCRF-CEM, Leukemic, cell viability after 96 hours vs vehicle (DMSO)
Protocol: as §1, §4, §5

K562 = assay: Tumor cell growth inhibition, Trypan blue exclusion, K562; settings: Homo sapiens; K562, Cml; cell viability after 96 hours vs vehicle (DMSO)
Protocol: as §1, §4, §5

MOLT-4 = assay: Tumor cell growth inhibition, Trypan blue exclusion, MOLT-4; settings: Homo sapiens; MOLT-4, T-Lymphoblastic: All; cell viability after 96 hours vs vehicle (DMSO)
Protocol: as §1, §4, §5

Namalwa = assay: Tumor cell growth inhibition, Trypan blue exclusion, Namalwa; settings: Burkitt's Lymphoma (B-Cell), cell viability after 96 hours vs vehicle (DMSO)
Protocol: as §1, §4, §5

Daudi = assay: Tumor cell growth inhibition, Trypan blue exclusion, Daudi; settings: Homo sapiens, Burkitt's Lymphoma (B-Cell), cell viability after 96 hours vs vehicle (DMSO)
Protocol: as §1, §4, §5

Raji = assay: Tumor cell growth inhibition, Trypan blue exclusion, Raji; settings: Homo sapiens, Burkitt's Lymphoma (B-Cell), cell viability after 96 hours vs vehicle (DMSO)
Protocol: as §1, §4, §5

Mes-Sa = assay: Tumor cell growth inhibition, Trypan blue exclusion, Mes-Sa; settings: Homo sapiens, Sarcoma, cell viability after 96 hours vs vehicle (DMSO)
Protocol: as §1, §4, §5

Mes-Sa/Dx5 = assay: Tumor cell growth inhibition, Trypan blue exclusion, Mes-Sa/Dx5; settings: Homo sapiens; Mes-Sa/Dx5, Resistant Sarcoma; cell viability after 96 hours vs vehicle (DMSO)
Protocol: as §1, §4, §5

CEM [2] = assay: Tumor cell growth inhibition, Trypan blue exclusion, Cem (second listing); settings: Homo sapiens, Leukemic (second listing, parent of Cem/C2), cell viability after 96 hours vs vehicle (DMSO)
Protocol: as §1, §4, §5

Cem/C2 = assay: Tumor cell growth inhibition, Trypan blue exclusion, Cem/C2; settings: Homo sapiens; Cem/C2, Resistant Leukemic; cell viability after 96 hours vs vehicle (DMSO)
Protocol: as §1, §4, §5

2008 = assay: Tumor cell growth inhibition, Trypan blue exclusion, 2008; settings: 2008, Ovarian; cell viability after 96 hours vs vehicle (DMSO)
Protocol: as §1, §4, §5

2008/17/4 = assay: Tumor cell growth inhibition, Trypan blue exclusion, 2008/17/4; settings: 2008/17/4, Resistant Ovarian; cell viability after 96 hours vs vehicle (DMSO)
Protocol: as §1, §4, §5

[3] = DU-145 cells, Table 7, read-out: DU-145 GI50
[4] = DU-145, DU145, Prostate (Ar−), read-out: GI50

SMILES: COc1cc(OC)c(/C=C/S(=O)(=O)Cc2ccc(OC)c(OCCCN3CCOCC3)c2)c(OC)c1 [(E)-4-(3-(5-((2,4,6-trimethoxystyrylsulfonyl)methyl)-2-methoxyphenoxy)propyl)morpholine]
- GI50 (DU145; [3]): > 10000 nM

SMILES: COc1cc(OC)c(/C=C/S(=O)(=O)Cc2ccc(OC)c(O)c2)c(OC)c1 [Example 1, (E)-5-((2,4,6-trimethoxystyrylsulfonyl)methyl)-2-methoxyphenol]
- GI50 (BT20): 80 nM
- GI50 (T47D): 10 nM
- GI50 (MCF-7): 10 nM
- GI50 (DU145; [4]): 5 nM
- GI50 (LNCAP): 10 nM
- GI50 (PC-3): 5 nM
- GI50 (OV-CAR-3): 30 nM
- GI50 (Sk-OV-3): 4 nM
- GI50 (MIA-PACA2): 3 nM
- GI50 (U87): 7 nM
- GI50 (H157): 7 nM
- GI50 (A549): 10 nM
- GI50 (H187): 3 nM
- GI50 (N417): 3 nM
- GI50 (AGS): 5 nM
- GI50 (RF1): 3 nM
- GI50 (RF48): 1 nM
- GI50 (CAKI-2): 6 nM
- GI50 (COLO-320): 3 nM
- GI50 (DLD-1): 7 nM
- GI50 (HCT-116): 6 nM
- GI50 (HCT-15): 7 nM
- GI50 (SW480): 5 nM
- GI50 (SK-MEL-28): 7 nM
- GI50 (CEM [1]): 4 nM
- GI50 (K562): 4 nM
- GI50 (MOLT-4): 3 nM
- GI50 (Namalwa): 3 nM
- GI50 (Daudi): 3 nM
- GI50 (Raji): 1 nM
- GI50 (Mes-Sa): 5 nM
- GI50 (Mes-Sa/Dx5): 5 nM
- GI50 (CEM [2]): 4 nM
- GI50 (Cem/C2): 3 nM
- GI50 2008: 5 nM
- GI50 (2008/17/4): 6 nM

SMILES: COc1cc(OC)c(/C=C/S(=O)(=O)Cc2ccc(OC)c(OP(=O)(O)O)c2)c(OC)c1 [Example 5, (E)-5-((2,4,6-trimethoxystyrylsulfonyl)methyl)-2-methoxyphenyl dihydrogen phosphate, disodium salt]
- GI50 (BT20): 8 nM
- GI50 (DU145; [4]): 5 nM
- GI50 (MIA-PACA2): 4 nM
- GI50 (U87): 9 nM
- GI50 (H157): 12 nM
- GI50 (A549): 20 nM
- GI50 (N417): 4 nM
- GI50 (AGS): 9 nM
- GI50 (DLD-1): 12 nM
- GI50 (HCT-15): 12 nM
- GI50 (SK-MEL-28): 12 nM

Second part, the compound after the results:

- GI50 (DU145; [3]): 4 to 10 nM
SMILES: COc1cc(OC)c(/C=C/S(=O)(=O)Cc2ccc(OC)c(OC(=O)CN(C)C)c2)c(OC)c1 [(E)-5-((2,4,6-trimethoxystyrylsulfonyl)methyl)-2-methoxyphenyl 2-(dimethylamino)acetate]

- GI50 (DU145; [3]): > 1000 nM
SMILES: COc1cc(OC)c(/C=C/S(=O)(=O)Cc2ccc(OC)c(OS(=O)(=O)c3ccc(C)cc3)c2)c(OC)c1 [(E)-5-((2,4,6-trimethoxystyrylsulfonyl)methyl)-2-methoxyphenyl 4-methylbenzenesulfonate]

Source: patent US7932242B2, “Substituted phenoxy-and phenylthio-derivatives for treating proliferative disorders” (Temple University - Of The Commonwealth System of Higher …, priority 2004, dated 2011)
